The text below walks through data of patent publication US12240854B2, “TRAF 6 inhibitors” (Helmholtz Zentrum München - Deutsches Forschungszentrum für …, priority 2018, dated 2025).

Series [1] deals with osteosarcoma cell line U2OS. The experiment in a line: Cell growth of the osteosarcoma cell line U2OS with or without irradiation. The series is classed as cell-based. As to the method:
For analysis of the cell growth of the osteosarcoma cell line U2OS, 5×10^3 cells were seeded in 96 well plates. 18 hours later, cells were treated with C25-140 (compound 3) or DMSO for 6 hours. Using a ^137caesium source (HWM-D2000), selected samples were irradiated with a dose of either 2 Gy or 4 Gy. Cell growth was measured every 24 hours for a period of 7 days by counting Hoechst33342 positive cells in an Operetta High-Content Imaging System (PerkinElmer) and the Harmony/Columbus analysis software (PerkinElmer).

The nature of series [2]: ADME: microsomal stability. The series is classed as in vitro ADME. As to the method:
(§1) All ADME (plasma stability, plasma protein binding, microsomal stability, Log D, Caco-2 assay, CYP450 inhibition and hERG predictor assay) as well as pharmacokinetic studies (Tmax, Cmax, AUC0-240min, Mean Residence Time, Elimination half life, Elimination rate constant, Volume of Distribution and Clearance) of C25-140 (compound 3) were conducted by Bienta Enamine Biology Services of Bienta/Enamine Ltd.

Series [3] concerns IMQ-induced psoriasis in Balb/C mice. The experiment in a line: Imiquimod (IMQ)-induced psoriasis mouse model. The series is classed as in vivo. As to the method:
To evaluate the anti-inflammatory activity of the compound C25-140 (compound 3), an Imiquimod (IMQ)-induced psoriasis mouse model was conducted by Washington Biotechnology, Inc. (Baltimore, USA). Per group, 8 male Balb/C mice were shaved in the back (1.5 cm×2 cm) and IMQ and C25-140 were applied topically to the shaved back and the right ear daily for 6 days. Thereby, C25-140 was dissolved in acetone and applied at a total dosage of 500 μg per day (2×250 μg). Mice were monitored and daily scores (erythema, scaling and thickness of back skin) were independently collected on a scale from 0 to 4: 0=none; 1=slight; 2=moderate; 3=marked and 4=very marked. Ear thickness was measured by electronic calipers as an indicator of edema. IL-17 cytokine secretion of the right ear tissue was measured by ELISA.

Series [4] has as its target T1, Interaction of Ubc13 with Uev1a (Homo sapiens, UniProt P61088+Q13404).
T1 construct: GST (N); His; made in house
In words: Ubc13-Uev1a interaction (FIG. 2E). The series is classed as binding.

Series [5] concerns 24 different Ubiquitin reaction cascades (E2, E3 and substrate combinations). The experiment in a line: Ubiquitin Profiler (Eurofins), single point. The settings on record: 30 μM, 24 reactions. The series is classed as biochemical. As to the method:
C25-140 was sent to Eurofins Pharma Discovery Services UK to perform a Single Point Ubiquitin Profiler testing of C25-140 effect at a concentration of 30 μM on 24 different Ubiquitin reaction cascades employing distinct combinations of E2, E3 and substrate. Each reaction was measured in duplicates. Cascade activity is expressed as a percentage of the mean cascade activity in the positive control samples. The positive control value is considered to be 100%, and all test samples are referred to this value.

A short description of a further series: ADME: plasma stability. The series is classed as in vitro ADME. As to the method: as §1
The next series addresses T2, hERG (Homo sapiens, UniProt Q12809).
T2 construct: Bienta Enamine Biology Services
In words: ADME: hERG predictor assay. The series is classed as in vitro ADME. As to the method: as §1

Series [6] deals with IKK kinase activity in MEF cells. In words: IKK kinase assay in MEF cells. The series is classed as cell-based, mouse. As to the method: For MEF cells, 5.5×10^5 cells were seeded, then treated with compound for 6 hours and eventually stimulated with IL-1β or TNFα for 8 minutes. 1×10^6 Jurkat T-cells were treated with compound for 6 hours and finally stimulated with PMA (400 ng/ml) and lonomycin (600 ng/ml) for 8 minutes. After cell lysis in Co-IP lysis buffer (150 mM NaCl; 25 mM Hepes (pH 7.5); 0.2% NP-40; 1 mM Glycerol; 10 mM NaF; 8 mM β-Glycerophosphat; 1 mM DTT; 300 μM Sodium-vanadate; complete protease inhibitor), input samples were taken and the supernatant was then incubated with 6 μL IKKγ antibody FL-419 (Santa Cruz Biotechnology). Upon incubation with Protein-G-Sepharose beads (GE Healthcare), beads were washed in Co-IP wash buffer (150 mM NaCl; 25 mM Hepes (pH 7.5); 0.2% NP-40; 1 mM Glycerol) and transferred into kinase reaction buffer ([…] HEPES pH7.9; 10 mM MgCl2; 20 μM ATP; 20 mM β-Glycerophosphat; 200 μM Sodium-Vanadate; 1 mM DTT) supplemented with […] GST-IκBα (1-53) and 0.5 μL ^32P-γ-ATP. After 30 minutes incubation at 37° C., reaction was stopped and analyzed by autoradiography as well as Western Blot after separation on SDS-PAGE.

The target of another series is T3, cIAP1 (Homo sapiens, UniProt Q13490).
T3 construct: purchased Boston Biochem
T3 sequence (Q13490 whole entry): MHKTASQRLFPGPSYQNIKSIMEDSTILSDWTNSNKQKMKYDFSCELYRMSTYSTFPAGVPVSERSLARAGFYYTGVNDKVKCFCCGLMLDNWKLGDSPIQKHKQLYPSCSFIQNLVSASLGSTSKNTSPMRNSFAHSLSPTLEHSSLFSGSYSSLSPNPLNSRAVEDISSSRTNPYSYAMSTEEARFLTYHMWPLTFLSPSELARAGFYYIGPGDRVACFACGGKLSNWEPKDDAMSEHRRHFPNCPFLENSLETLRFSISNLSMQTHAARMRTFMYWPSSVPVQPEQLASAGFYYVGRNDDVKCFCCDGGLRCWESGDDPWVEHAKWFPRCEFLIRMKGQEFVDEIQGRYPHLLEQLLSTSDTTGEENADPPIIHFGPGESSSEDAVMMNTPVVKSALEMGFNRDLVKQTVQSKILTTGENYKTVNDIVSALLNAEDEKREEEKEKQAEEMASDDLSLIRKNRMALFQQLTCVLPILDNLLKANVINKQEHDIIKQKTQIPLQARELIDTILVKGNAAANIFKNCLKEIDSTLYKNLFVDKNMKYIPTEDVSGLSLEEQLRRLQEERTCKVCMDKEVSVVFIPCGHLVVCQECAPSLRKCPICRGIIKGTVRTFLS
The experiment in a line: In vitro ubiquitination assay, cIAP1 ubiquitin ligase kit. The series is classed as biochemical. The conditions noted are these: K63 chain formation. As to the method:
For analysis of cIAP1, MDM2, TRIM63, RNF4, ITCH and E6AP mediated poly-ubiquitination, the respective ubiquitin ligase kit from Boston Biochem (K-102, K-260, K-200B, K-220, K-240 and K-270) was used. Here, reaction buffer, E1, E2 and E3 enzyme (and p53 substrate in case of MDM2) were mixed and pre-incubated with compound or DMSO for 5 minutes at room temperature before adding Mg^2+-ATP and mono-ubiquitin for reaction start. Ubiquitination was visualized by Western Blot analyses.

The next series concerns Caco-2. The experiment in a line: ADME: Caco-2 assay. The series is classed as in vitro ADME. As to the method:
as §1

Series [7] is described as follows: ADME: plasma protein binding. The series is classed as in vitro ADME. As to the method:
as §1

Setting [8] is: topical, 2x250 μg per day, 6 days.
[9] abbreviates: topical, 2x250 μg per day, 6 days, listed as 25-140.

Entries after “also recorded” stand apart in the source; their conditions may differ.

T1 sequence (P61088 with tags, fused parts or gaps): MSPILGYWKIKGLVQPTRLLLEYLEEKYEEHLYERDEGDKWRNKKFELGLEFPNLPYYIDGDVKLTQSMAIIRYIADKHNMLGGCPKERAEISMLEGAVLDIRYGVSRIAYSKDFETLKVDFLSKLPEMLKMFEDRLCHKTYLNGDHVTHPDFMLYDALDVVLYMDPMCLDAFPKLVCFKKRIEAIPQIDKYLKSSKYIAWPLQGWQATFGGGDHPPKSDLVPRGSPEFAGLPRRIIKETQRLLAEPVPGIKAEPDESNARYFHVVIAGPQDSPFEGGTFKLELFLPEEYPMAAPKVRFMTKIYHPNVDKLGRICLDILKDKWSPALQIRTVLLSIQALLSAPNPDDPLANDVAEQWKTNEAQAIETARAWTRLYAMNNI
T1 sequence (Q13404 with tags, fused parts or gaps isoform Q13404-7): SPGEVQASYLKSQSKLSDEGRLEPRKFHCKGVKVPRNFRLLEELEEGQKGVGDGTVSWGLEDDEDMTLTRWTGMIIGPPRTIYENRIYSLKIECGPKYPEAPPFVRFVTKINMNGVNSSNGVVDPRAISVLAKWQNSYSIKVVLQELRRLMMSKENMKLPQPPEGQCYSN
T2 sequence (Q12809 whole entry): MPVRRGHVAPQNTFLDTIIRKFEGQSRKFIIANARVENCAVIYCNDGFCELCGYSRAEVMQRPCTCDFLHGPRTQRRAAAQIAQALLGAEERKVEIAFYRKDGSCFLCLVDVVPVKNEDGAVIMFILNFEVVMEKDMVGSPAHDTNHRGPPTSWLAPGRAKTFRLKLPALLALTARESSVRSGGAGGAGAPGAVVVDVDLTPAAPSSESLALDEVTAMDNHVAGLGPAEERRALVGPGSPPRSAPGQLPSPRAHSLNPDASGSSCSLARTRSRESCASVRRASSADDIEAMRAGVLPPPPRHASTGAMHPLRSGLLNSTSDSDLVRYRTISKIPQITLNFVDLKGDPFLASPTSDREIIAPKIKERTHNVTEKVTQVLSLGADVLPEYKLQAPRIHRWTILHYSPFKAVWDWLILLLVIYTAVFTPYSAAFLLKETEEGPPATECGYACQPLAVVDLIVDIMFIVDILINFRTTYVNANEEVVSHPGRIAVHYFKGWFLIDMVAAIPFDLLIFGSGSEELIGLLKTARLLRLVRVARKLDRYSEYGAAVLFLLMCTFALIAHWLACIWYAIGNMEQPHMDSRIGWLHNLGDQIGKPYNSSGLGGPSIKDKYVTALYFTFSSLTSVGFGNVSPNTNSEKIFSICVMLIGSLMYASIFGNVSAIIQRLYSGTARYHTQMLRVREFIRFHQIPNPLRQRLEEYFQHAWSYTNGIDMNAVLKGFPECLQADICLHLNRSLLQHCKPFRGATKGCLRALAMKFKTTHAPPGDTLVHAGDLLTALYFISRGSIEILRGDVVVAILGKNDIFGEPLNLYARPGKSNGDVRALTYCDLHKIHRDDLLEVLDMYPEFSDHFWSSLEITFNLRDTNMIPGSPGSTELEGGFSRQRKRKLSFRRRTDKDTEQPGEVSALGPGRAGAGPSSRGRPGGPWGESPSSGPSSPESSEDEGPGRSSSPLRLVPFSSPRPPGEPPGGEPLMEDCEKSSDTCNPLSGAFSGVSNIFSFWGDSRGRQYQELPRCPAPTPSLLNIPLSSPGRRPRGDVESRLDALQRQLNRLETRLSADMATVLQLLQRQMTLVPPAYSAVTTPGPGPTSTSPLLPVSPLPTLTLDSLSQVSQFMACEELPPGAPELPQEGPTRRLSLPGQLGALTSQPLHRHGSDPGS

Take `Cc1nn(-c2ccc3nnc(C)n3n2)c(C)c1CCC(=O)N1CCC(Cc2ccccc2)CC1` [Example C25-140, 1-(4-Benzylpiperidin-1-yl)-3-(3,5-dimethyl-1-(3-methyl-[1,2,4]-triazolo-[4,3-b]-pyridazin-6-yl)-1H-pyrazol-4-yl)-propan-1-one]: the osteosarcoma cell growth entry in [1] (30 μM compound + 2Gy irradiation) is given as “synergistic effects; also recorded: boosted the effect to the region of 4Gy irradiation; also recorded: decreases cell growth to the same extent as the higher dose of irradiation (4Gy)”. In series [1] (compound alone at 30 μM), the osteosarcoma cell growth result is given as “reducing proliferation of U2OS cells to the same degree as 2Gy irradiation; also recorded: same inhibitory impact; also recorded: reduced”. Further, in series [2], the microsomal stability result is on record as “stable”. Moreover, the “psoriasis symptoms / disease outcome (in words)” value in series [3] (IMQ-induced psoriasis) is “ameliorates disease outcomes; also recorded: ameliorates symptoms”. Moreover, the “IL-17 cytokine in right ear tissue” value in series [3] (day 6, ELISA) is “significantly reduced; also recorded: decreased”. Also, in series [3] (setting [8]), the cumulative score entry is listed as “reduces”, the ear thickness entry is listed as “significantly reduced”, the “erythema score of the back” value is on record as “improvement of the disease symptoms” and the scaling score entry is “improvement of the disease symptoms”. The “thickness score of the back” value in series [3] (setting [8]) is reported as “significantly reduce”. Moreover, in [3] (setting [9]), the cumulative score entry was “significantly reduce” and the ear thickness result is “improvement of the disease symptoms”. Further, the “interaction of Ubc13 with Uev1a” value in series [4] is “did not affect binding; also recorded: not affected”. Besides, in [5], the “Ubiquitin Profiler cascade activity” value is given as “None of these reactions was inhibited; also recorded: None of the reactions is considerably inhibited”. The plasma stability result in “ADME: plasma stability” was “stable”. For the same compound, the hERG inhibition result at hERG is “does not very much inhibit hERG”. In [6] (IL-1β stimulation), the “IKK kinase activity, phosphorylation of IκBα” value is “decreased IKK kinase activity; also recorded: decreased phosphorylation of IκBα”. Moreover, the “IKK kinase activity, phosphorylation of IκBα” value in series [6] (TNFα stimulation) is on record as “also affects”. Also, on cIAP1, the “auto-ubiquitination of cIAP1” value is “indeed affected; also recorded: dose-dependently diminished”. Moreover, in the series with Caco-2, the Caco-2 permeability result is “good penetration of the Caco-2 layer”. In addition, the plasma protein binding entry in series [7] is “decent good plasma protein binding capacity”.
